In the OPERA property sets (Mansouri et al. 2018):

Compound `COC(=O)c1cc2nc(S(=O)Cc3ncccc3C)[nH]c2cc1C` (stereo not given) has a logP of 2.4.
For `CC(C)(NC(=O)N(CCCl)N=O)C(=O)O`, the logP was 1.74.
`CN(C)C(=S)NCc1ccccc1` gave a logP of 1.59.
`CC1(C)OC2CC3C4CC(F)C5=CC(=O)C(Cl)=CC5(C)C4(F)C(O)CC3(C)C2(C(=O)CO)O1` (stereo not given) showed a logP of 2.99.
With `O=C(O)Cc1n[nH]oc1=O` the logP was -1.66.
`CSc1ccc(C=NN=C(N)NO)cc1` gave a logP of 0.32.
Work on `c1ccc(-c2nnco2)cc1` yielded a logP of 1.31.
`CCCc1ccc2c(c1)C(=O)c1ccc(NC(C)=O)cc1S2(=O)=O` gave a logP of 3.51.
Work on `CCCCCCC1OC(=O)c2cc(N)ccc21` (stereo not given) yielded a logP of 3.65.
For `CCC(=O)OCCOc1ccc(C=O)cc1OC`, the logP was 1.33.
Work on `CC(C)(C)[N+]([O-])=NC#N` yielded a logP of 1.4.
For `COCC(=O)Nc1ccc(Cl)c(Cl)c1`, the logP was 2.77.
Work on `CC(=O)Nc1ccccc1C(C)C` yielded a logP of 1.71.
For `CC(=O)Nc1ccc(C#N)cc1`, the logP was 1.37.
With `C=CCn1c(=O)c(N(C)C)c(C)n(-c2ccccc2)c1=O` the logP was 1.98.
`NC(=O)N=[N+]([O-])c1ccccc1` gave a logP of 0.58.
`O=C1NC(c2cccc3ccccc23)Nc2ccccc21` (stereo not given) showed a logP of 2.96.
In the case of `Cc1c(NCC(C)C)c(=O)n(-c2ccccc2)c(=O)n1C`, the logP is reported as 1.48.
With `CC(=O)OCC1OC(NC(=O)N(CCCl)N=O)C(OC(C)=O)C(OC(C)=O)C1OC(C)=O` (stereo not given) the logP was 1.04.
With `Cn1c(SCC2=C(C(=O)O)N3C(=O)C(NC(=O)Cc4cccs4)C3SC2)nnc(O)c1=O` (stereo not given) the logP was -0.52.
Compound `CSc1cccc(NC(C)=O)c1` has a logP of 2.14.
Compound `CCCOCCC(=O)N(C)c1ccc(S(=O)(=O)N(C)C)cc1` has a logP of 1.26.
Compound `Cc1ccc(S(=O)(=O)Oc2ccccc2C(=O)N(C)C)cc1` has a logP of 2.01.
In the case of `CC(C)C(=O)Nc1ccc(Cl)c(Cl)c1`, the logP is reported as 3.72.
`COC(=O)c1ccccc1NC(C)=O` gave a logP of 1.65.
Work on `O=C(O)c1ccccc1-c1ccccc1` yielded a logP of 2.89.
In the case of `CC(=O)Nc1ccc(S(C)(=O)=O)cc1`, the logP is reported as 0.58.
For `COc1cc(C=NO)ccc1OCCOC(=O)c1ccccc1`, the logP was 2.94.
For `CC(O)COc1cccc2oc(C(=O)O)cc(=O)c12` (stereo not given), the logP was 1.32.
For `CC(=O)Nc1ccc2nccnc2c1`, the logP was 1.
In the case of `c1ccc(Cc2nn[nH]n2)cc1`, the logP is reported as 1.36.
Compound `CCOC(=O)CC(=O)C=Cc1cccc(C)c1` has a logP of 2.8.
Compound `O=C(O)c1cc(=O)c2c(OCC(O)COc3cccc4oc(C(=O)O)cc(=O)c34)cccc2o1` has a logP of 1.92.
`COc1ccc(-c2ncc[nH]2)c(OC)c1` gave a logP of 1.72.
`CC1(C)N=C(N)N=C(N)N1c1ccc(OCC(=O)N2CCOCC2)cc1` gave a logP of -1.18.
For `CCOC(=O)CON=Cc1ccc(OCCOC(=O)c2ccccc2OC)c(OC)c1`, the logP was 3.27.
`CN=C=S` showed a logP of 0.94.
`CSc1ncnc2c1ccn2C1OC(CO)C(O)C1O` (stereo not given) gave a logP of 0.09.
Compound `CNC(=S)NC12CC3CC(CC(C3)C1)C2` has a logP of 2.67.
With `CCCCCC(=O)N(C)c1ccc(S(=O)(=O)N(C)C)cc1` the logP was 2.16.
For `CC(=O)OCC1CCC(NC(=O)N(CCCl)N=O)CC1` (stereo not given), the logP was 2.24.
`O=c1cc(-c2ccc(O)cc2)oc2ccccc12` showed a logP of 3.2.
Work on `CCC1OC(=O)C(C)C(OC2CC(C)(OC)C(O)C(C)O2)C(C)C(OC2OC(C)C(O)C(N(C)C)C2O)C(C)(O)CC(C)C(=O)C(C)C(O)C1(C)O` (stereo not given) yielded a logP of 1.44.
With `c1ccc2c(c1)CNc1ccccc1C2` the logP was 2.9.
With `CC(=O)Nc1ccc(C(C)=O)cc1` the logP was 1.24.
